Measured values as given in ChEMBL document CHEMBL4414609, “High-Affinity Alkynyl Bisubstrate Inhibitors of Nicotinamide N-Methyltransferase (NNMT)” (J Med Chem, 2019).

What was measured:
[1] = biological target: T1, GNMT (glycine N-methyltransferase) (Homo sapiens, UniProt Q14749); assay: Inhibition of human GNMT expressed in Escherichia coli at 1 uM assessed as reduction in SAH level using glycine as substrate in presence of SAM incubated for 30 mins by LC-MS/MS analysis relative to control; conditions: recombinant human GNMT expressed in Escherichia coli, probe glycine
T1 sequence (Q14749 whole entry): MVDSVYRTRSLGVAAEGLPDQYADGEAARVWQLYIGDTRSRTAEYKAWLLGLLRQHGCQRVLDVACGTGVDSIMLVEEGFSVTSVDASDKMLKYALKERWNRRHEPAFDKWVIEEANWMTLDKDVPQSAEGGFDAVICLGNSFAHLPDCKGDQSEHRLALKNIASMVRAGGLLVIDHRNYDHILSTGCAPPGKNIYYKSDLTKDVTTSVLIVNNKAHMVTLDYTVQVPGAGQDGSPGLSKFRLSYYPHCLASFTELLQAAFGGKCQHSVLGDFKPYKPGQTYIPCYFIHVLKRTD

[2] = biological target: Histone-lysine N-methyltransferase ASH1L (Homo sapiens, UniProt Q9NR48); assay: Inhibition of human ASH1L expressed in Escherichia coli assessed as reduction in methylated polynucleosome level using polynucleosome as substrate in presence of [3H] SAM incubated for 15 mins by scintillation counting
[3] = biological target: T2, Nicotinamide N-methyltransferase (Homo sapiens, UniProt P40261); assay: Inhibition of N-terminal His6-tagged wild type human NNMT expressed in Escherichia coli NiCo21(DE3) assessed as reduction in 1-methylquinolinium level using quinoline as substrate in presence of SAM and measured every 27 seconds for 5.5 mins by fluorescence-based assay
T2 sequence (P40261 whole entry): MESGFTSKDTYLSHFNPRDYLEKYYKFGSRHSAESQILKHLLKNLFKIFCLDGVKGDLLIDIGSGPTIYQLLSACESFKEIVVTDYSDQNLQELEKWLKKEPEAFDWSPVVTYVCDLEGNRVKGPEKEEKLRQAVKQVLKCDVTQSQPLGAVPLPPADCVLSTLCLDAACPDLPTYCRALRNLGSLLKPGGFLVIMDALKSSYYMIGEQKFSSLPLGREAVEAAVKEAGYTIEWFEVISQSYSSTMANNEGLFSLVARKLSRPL

[4] = test system: U2OS; assay: Cytotoxicity against human U2OS cells at 100 uM after 48 hrs by CellTiter-Glo luminescent cell viability; assay type: cell-based
[5] = biological target: Histone-lysine N-methyltransferase, H3 lysine-79 specific (Homo sapiens, UniProt Q8TEK3); assay: Inhibition of human DOT1L expressed in Escherichia coli assessed as reduction in methylated polynucleosome level using polynucleosome as substrate in presence of [3H] SAM incubated for 15 mins by scintillation counting
[6] = biological target: T3, PNMT (phenylethanolamine N-methyltransferase) (Homo sapiens, UniProt P11086); assay: Inhibition of human PNMT expressed in Escherichia coli at 1 uM assessed as reduction in SAH level using DL-normetanephrine as substrate in presence of SAM incubated for 45 mins by LC-MS/MS analysis relative to control; conditions: recombinant human PNMT expressed in Escherichia coli, probe DL-normetanephrine
T3 sequence (P11086 whole entry): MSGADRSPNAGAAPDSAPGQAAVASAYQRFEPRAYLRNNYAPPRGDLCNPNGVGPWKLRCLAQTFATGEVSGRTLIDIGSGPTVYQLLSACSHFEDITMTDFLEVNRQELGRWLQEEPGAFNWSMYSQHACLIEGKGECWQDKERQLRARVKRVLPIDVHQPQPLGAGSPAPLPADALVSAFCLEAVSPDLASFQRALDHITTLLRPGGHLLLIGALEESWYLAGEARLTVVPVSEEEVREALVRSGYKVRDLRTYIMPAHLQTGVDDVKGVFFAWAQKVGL

[7] = biological target: T4, Histone-lysine N-methyltransferase EHMT2 (Homo sapiens, UniProt Q96KQ7); assay: Inhibition of human G9a expressed in Escherichia coli assessed as reduction in methylated histone H3 full length using histone H3 full length level as substrate in presence of [3H] SAM incubated for 120 mins by scintillation counting
T4 sequence (Q96KQ7 whole entry): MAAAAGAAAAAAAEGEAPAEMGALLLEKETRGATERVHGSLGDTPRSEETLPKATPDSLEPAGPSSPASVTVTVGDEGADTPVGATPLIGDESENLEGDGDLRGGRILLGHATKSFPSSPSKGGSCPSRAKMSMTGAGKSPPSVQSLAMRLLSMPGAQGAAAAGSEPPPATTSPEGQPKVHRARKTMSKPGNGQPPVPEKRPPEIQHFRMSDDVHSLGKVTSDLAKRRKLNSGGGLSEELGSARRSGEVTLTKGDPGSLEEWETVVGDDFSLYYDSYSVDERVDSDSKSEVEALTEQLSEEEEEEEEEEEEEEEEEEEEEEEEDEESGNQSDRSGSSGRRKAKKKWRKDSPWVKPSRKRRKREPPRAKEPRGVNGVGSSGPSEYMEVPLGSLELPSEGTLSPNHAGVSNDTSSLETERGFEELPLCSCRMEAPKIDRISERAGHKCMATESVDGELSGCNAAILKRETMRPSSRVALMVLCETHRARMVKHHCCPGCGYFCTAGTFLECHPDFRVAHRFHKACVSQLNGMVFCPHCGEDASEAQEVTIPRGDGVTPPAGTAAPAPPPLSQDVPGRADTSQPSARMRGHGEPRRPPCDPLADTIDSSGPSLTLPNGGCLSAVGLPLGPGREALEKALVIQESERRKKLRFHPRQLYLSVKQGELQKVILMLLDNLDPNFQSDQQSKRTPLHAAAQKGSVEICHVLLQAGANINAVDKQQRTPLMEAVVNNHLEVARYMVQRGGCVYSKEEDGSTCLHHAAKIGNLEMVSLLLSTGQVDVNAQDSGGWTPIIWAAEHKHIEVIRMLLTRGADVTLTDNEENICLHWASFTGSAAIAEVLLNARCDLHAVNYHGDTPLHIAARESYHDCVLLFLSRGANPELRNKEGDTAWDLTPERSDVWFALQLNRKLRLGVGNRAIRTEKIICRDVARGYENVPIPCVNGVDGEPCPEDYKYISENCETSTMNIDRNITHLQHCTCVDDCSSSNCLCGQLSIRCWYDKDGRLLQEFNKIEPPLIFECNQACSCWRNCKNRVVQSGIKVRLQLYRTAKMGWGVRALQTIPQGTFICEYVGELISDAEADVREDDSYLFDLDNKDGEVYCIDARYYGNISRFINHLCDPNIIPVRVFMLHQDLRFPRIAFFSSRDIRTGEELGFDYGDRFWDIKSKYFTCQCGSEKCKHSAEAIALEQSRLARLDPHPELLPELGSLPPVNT

[8] = biological target: Indolethylamine N-methyltransferase (Homo sapiens, UniProt O95050); assay: Inhibition of wild type human INMT expressed in Escherichia coli using tryptamine as substrate in presence of SAM incubated for 30 mins by MTase-Glo assay
[9] = biological target: INMT (indolethylamine N-methyltransferase) (Homo sapiens, UniProt O95050); assay: Inhibition of wild type human INMT expressed in Escherichia coli at 1 uM using tryptamine as substrate in presence of SAM incubated for 30 mins by MTase-Glo assay relative to control; conditions: probe tryptamine
Sequence of INMT (indolethylamine N-methyltransferase) (O95050 whole entry): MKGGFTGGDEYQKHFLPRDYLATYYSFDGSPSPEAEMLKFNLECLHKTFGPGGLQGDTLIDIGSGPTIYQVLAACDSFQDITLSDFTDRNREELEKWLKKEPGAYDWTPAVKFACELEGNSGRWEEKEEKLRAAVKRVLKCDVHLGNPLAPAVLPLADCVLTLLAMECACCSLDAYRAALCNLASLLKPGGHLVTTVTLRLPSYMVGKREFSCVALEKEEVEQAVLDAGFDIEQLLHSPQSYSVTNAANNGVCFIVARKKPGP

Sequence of Histone-lysine N-methyltransferase, H3 lysine-79 specific (Q8TEK3 whole entry): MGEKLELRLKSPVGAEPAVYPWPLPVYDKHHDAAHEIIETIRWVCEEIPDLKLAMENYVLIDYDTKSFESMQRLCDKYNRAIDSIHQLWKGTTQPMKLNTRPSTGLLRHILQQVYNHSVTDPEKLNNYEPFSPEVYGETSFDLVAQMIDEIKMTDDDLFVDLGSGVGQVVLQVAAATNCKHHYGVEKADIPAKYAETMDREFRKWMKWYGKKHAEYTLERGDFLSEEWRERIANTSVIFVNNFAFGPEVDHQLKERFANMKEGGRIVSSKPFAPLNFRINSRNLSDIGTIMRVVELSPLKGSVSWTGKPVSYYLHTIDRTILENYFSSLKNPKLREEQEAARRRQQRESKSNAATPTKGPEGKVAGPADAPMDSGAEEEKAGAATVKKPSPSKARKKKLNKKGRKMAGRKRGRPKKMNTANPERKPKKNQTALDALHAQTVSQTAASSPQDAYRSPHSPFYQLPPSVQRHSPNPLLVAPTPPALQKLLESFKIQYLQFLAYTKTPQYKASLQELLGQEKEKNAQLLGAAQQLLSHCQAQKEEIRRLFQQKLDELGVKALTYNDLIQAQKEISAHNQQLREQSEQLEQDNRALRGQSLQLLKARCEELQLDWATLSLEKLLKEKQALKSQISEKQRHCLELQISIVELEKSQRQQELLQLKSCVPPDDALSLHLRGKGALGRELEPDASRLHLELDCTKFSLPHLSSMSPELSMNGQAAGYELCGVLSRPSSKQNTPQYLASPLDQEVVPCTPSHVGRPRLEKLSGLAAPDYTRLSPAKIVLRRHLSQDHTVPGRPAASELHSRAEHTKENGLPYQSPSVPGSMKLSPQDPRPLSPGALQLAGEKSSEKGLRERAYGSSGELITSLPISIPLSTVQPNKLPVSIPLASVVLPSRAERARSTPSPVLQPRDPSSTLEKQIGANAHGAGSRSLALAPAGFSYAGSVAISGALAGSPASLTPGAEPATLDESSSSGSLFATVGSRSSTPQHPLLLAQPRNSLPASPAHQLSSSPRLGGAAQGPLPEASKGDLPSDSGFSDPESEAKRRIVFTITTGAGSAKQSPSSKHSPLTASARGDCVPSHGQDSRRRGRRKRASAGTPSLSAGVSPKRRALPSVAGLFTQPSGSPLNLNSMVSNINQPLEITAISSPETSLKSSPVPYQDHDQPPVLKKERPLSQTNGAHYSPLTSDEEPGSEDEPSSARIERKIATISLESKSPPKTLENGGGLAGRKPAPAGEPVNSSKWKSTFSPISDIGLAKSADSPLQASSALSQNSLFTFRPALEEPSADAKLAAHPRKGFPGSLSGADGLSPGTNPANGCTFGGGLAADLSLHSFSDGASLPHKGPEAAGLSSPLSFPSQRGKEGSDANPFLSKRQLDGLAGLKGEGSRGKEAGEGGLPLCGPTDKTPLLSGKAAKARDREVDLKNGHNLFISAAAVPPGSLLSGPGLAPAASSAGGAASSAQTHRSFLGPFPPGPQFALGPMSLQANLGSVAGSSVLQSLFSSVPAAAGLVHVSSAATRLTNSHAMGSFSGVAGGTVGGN
Sequence of Indolethylamine N-methyltransferase (O95050 whole entry): as the sequence (O95050 whole entry) above

With NC(=O)c1cccc(C#C[C@@H](CC[C@H](N)C(=O)O)C[C@H]2O[C@@H](n3cnc4c(N)ncnc43)[C@H](O)[C@@H]2O)c1 the inhibition at 0.5 h, 1 µM [1] was 4%, the IC50 [2] was > 10 µM and the Ki ([3]; read-out: Ki) was 0.0005 µM. For the same compound, the Ki ([3]; read-out: pKi (converted)) was 0.000501 µM, the Activity [4] was “Non-Toxic” and the IC50 [5] was > 10 µM. For the same compound, the inhibition at 0.75 h, 1 µM [6] was 0%, the IC50 [7] was > 10 µM and the IC50 [8] was 3.4 µM. The inhibition at 0.5 h, 1 µM [9] was 14%.
